Where two headings read alike, the source gives them in different places.
How the values were obtained:
134 cancer cell lines = assay: Cell viability assay (ATPlite, 72 hours), IC50 on cancer cell line panel
AP-1060 (ETV6-NTRK3) = assay: Cell viability assay; conditions: read-out: IC50 in cell proliferation assay
[1] = biological target: T1, panel of 255 wild-type kinases (Homo sapiens, UniProt Q9BZL6); assay: Kinase panel profiling at 1 µmol/L (MSA or IMAP), percentage inhibition; assay type: biochemical; conditions: kinase PKD2; 1 µmol/L single concentration; read-out: %-inhibition at 1 µmol/L, PKD2
T1 sequence (Q9BZL6 1-878): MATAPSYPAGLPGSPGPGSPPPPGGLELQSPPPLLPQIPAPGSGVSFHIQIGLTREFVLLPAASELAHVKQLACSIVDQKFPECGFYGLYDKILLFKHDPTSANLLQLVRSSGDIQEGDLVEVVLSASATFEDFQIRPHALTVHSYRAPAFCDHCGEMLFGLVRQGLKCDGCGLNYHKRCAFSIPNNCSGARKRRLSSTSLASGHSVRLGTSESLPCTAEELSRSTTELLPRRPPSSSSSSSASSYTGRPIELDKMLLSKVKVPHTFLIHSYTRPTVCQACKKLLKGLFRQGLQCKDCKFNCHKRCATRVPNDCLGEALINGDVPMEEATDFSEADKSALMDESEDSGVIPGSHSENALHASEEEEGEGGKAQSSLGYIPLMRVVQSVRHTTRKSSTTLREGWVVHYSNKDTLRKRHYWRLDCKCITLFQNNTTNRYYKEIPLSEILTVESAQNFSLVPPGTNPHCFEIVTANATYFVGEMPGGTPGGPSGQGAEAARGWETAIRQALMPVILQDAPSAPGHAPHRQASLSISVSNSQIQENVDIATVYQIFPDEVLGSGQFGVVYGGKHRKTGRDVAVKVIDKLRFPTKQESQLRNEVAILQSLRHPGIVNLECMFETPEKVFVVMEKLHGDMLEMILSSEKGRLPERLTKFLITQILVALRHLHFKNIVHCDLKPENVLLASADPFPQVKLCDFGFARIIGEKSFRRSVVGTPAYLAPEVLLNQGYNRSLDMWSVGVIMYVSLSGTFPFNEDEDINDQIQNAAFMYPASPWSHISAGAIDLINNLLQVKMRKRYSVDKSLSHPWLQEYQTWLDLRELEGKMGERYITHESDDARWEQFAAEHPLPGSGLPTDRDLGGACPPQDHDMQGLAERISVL

## COC(=O)N[C@@H](C)CNc1nccc(-c2cn(C(C)C)nc2-c2cc(Cl)cc(NS(C)(=O)=O)c2F)n1 [encorafenib]
134 cancer cell lines; Homo sapiens, MeWo, read-out: IC50 in cell proliferation assay, MeWo cell line
  IC50: 1 µM
134 cancer cell lines; Homo sapiens, NCCIT, read-out: IC50 in cell proliferation assay, NCC-IT cell line
  IC50: 1.04 µM
134 cancer cell lines; Homo sapiens, NCI-H82, read-out: IC50 in cell proliferation assay, cell line NCI-H82
  IC50: 1.07 µM
134 cancer cell lines; Homo sapiens, NCI-H460, read-out: IC50 in cell proliferation assay, NCI-H460 cell line
  IC50: 1.16 µM
134 cancer cell lines; Homo sapiens, NCI-H661, read-out: IC50 in cell proliferation assay, NCI-H661 cell line
  IC50: 0.821 µM
134 cancer cell lines; Homo sapiens, NCI-H716, read-out: IC50 in cell proliferation assay, cell line NCI-H716 (FGFR2-COL14A1)
  IC50: 9.56 µM
134 cancer cell lines; Homo sapiens, NCI-H1650, read-out: IC50 in cell proliferation assay, NCI-H1650 cell line (EGFR exon19del)
  IC50: > 31.6 µM
134 cancer cell lines; Homo sapiens, NCI-H1975, read-out: IC50 in cell proliferation assay, NCI-H1975 cell line (EGFR p.L858R + p.T790M)
  IC50: 1.44 µM
134 cancer cell lines; Homo sapiens, NCI-H2228, read-out: IC50 in cell proliferation assay, NCI-H2228 cell line (EML4-ALK)
  IC50: 2.3 µM
134 cancer cell lines; Homo sapiens, OVCAR-3, read-out: IC50 in cell proliferation assay, cell line OVCAR-3
  IC50: 0.695 µM
134 cancer cell lines; Homo sapiens, PFSK-1, read-out: IC50 in cell proliferation assay, cell line PFSK-1
  IC50: 1 µM
134 cancer cell lines; Homo sapiens, RL95-2, read-out: IC50 in cell proliferation assay, cell line RL95-2 (EGFR p.A289V)
  IC50: 0.924 µM
134 cancer cell lines; Homo sapiens, RPMI-7951, read-out: IC50 in cell proliferation assay, cell line RPMI-7951 (BRAF p.V600E)
  IC50: 0.013 µM
134 cancer cell lines; Homo sapiens, RS4-11, read-out: IC50 in cell proliferation assay, cell line RS4;11
  IC50: 0.925 µM
134 cancer cell lines; Homo sapiens, Rec1, read-out: IC50 in cell proliferation assay, cell line REC-1
  IC50: 8.53 µM
134 cancer cell lines; Homo sapiens, SHP77, read-out: IC50 in cell proliferation assay, cell line SHP-77
  IC50: > 31.6 µM
134 cancer cell lines; Homo sapiens, SK-BR-3, read-out: IC50 in cell proliferation assay, cell line SK-BR-3 (ERBB2 amplification)
  IC50: > 31.6 µM
134 cancer cell lines; Homo sapiens, SK-N-AS, read-out: IC50 in cell proliferation assay, cell line SK-N-AS
  IC50: 1.11 µM
134 cancer cell lines; Homo sapiens, SK-N-FI, read-out: IC50 in cell proliferation assay, cell line SK-N-FI
  IC50: 3.29 µM
134 cancer cell lines; Homo sapiens, SK-N-MC, read-out: IC50 in cell proliferation assay, cell line SK-N-MC
  IC50: 0.976 µM
134 cancer cell lines; Homo sapiens, SK-N-SH, read-out: IC50 in cell proliferation assay, cell line SK-N-SH (ALK p.F1174L)
  IC50: 1.11 µM
134 cancer cell lines; Homo sapiens, SNU-5, read-out: IC50 in cell proliferation assay, cell line SNU-5 (MET amplification)
  IC50: 7.36 µM
134 cancer cell lines; Homo sapiens, SNU-16, read-out: IC50 in cell proliferation assay, cell line SNU-16 (FGFR2 amplification)
  IC50: 1.75 µM
134 cancer cell lines; Homo sapiens, SNU-C2B, read-out: IC50 in cell proliferation assay, cell line SNU-C2B (EGFR p.R165Q)
  IC50: 9.59 µM
134 cancer cell lines; Homo sapiens, SU-DHL-1, read-out: IC50 in cell proliferation assay, cell line SU-DHL-1 (NPM1-ALK)
  IC50: 2.15 µM
134 cancer cell lines; Homo sapiens, SU-DHL-6, read-out: IC50 in cell proliferation assay, cell line SU-DHL-6
  IC50: 5.81 µM
134 cancer cell lines; Homo sapiens, SUP-T1, read-out: IC50 in cell proliferation assay, cell line SUP-T1
  IC50: > 31.6 µM
134 cancer cell lines; Homo sapiens, SW48, read-out: IC50 in cell proliferation assay, cell line SW48 (EGFR p.G719S)
  IC50: 2.23 µM
134 cancer cell lines; Homo sapiens, SW480, read-out: IC50 in cell proliferation assay, cell line SW480
  IC50: 1.22 µM
134 cancer cell lines; Homo sapiens, SW626, read-out: IC50 in cell proliferation assay, cell line SW626
  IC50: 2.44 µM
134 cancer cell lines; Homo sapiens, SW780, read-out: IC50 in cell proliferation assay, cell line SW780 (FGFR3-BAIAP2L1)
  IC50: 19.8 µM
134 cancer cell lines; Homo sapiens, SW837, read-out: IC50 in cell proliferation assay, cell line SW837
  IC50: > 31.6 µM
134 cancer cell lines; Homo sapiens, SW872, read-out: IC50 in cell proliferation assay, cell line SW872 (BRAF p.V600E)
  IC50: 0.007 µM
134 cancer cell lines; Homo sapiens, SW900, read-out: IC50 in cell proliferation assay, cell line SW900
  IC50: 1.39 µM
134 cancer cell lines; Homo sapiens, SW948, read-out: IC50 in cell proliferation assay, cell line SW948
  IC50: 3.23 µM
134 cancer cell lines; Homo sapiens, SW982, read-out: IC50 in cell proliferation assay, cell line SW982 (BRAF p.V600E)
  IC50: 0.549 µM
134 cancer cell lines; Homo sapiens, SW-620, read-out: IC50 in cell proliferation assay, cell line SW620
  IC50: 1.81 µM
134 cancer cell lines; Homo sapiens, T98G, read-out: IC50 in cell proliferation assay, cell line T98G
  IC50: 1.67 µM
134 cancer cell lines; Homo sapiens, TCC-SUP, read-out: IC50 in cell proliferation assay, cell line TCCSUP
  IC50: 0.74 µM
134 cancer cell lines; Homo sapiens, THP-1, read-out: IC50 in cell proliferation assay, cell line THP-1
  IC50: 2.46 µM
134 cancer cell lines; Homo sapiens, U2OS, read-out: IC50 in cell proliferation assay, cell line U2OS
  IC50: 1.46 µM
134 cancer cell lines; Homo sapiens, U-87 MG, read-out: IC50 in cell proliferation assay, cell line U-87MG ATCC
  IC50: 1.05 µM
134 cancer cell lines; Homo sapiens, U-118-MG, read-out: IC50 in cell proliferation assay, cell line U-118MG
  IC50: 1.41 µM
134 cancer cell lines; Homo sapiens, UMUC3, read-out: IC50 in cell proliferation assay, cell line UM-UC-3
  IC50: 0.993 µM
134 cancer cell lines; Hs766T, read-out: IC50 in cell proliferation assay, Hs 766T cell line
  IC50: 1.91 µM
134 cancer cell lines; L-82, read-out: IC50 in cell proliferation assay, L-82 cell line (NPM1-ALK)
  IC50: 8.75 µM
134 cancer cell lines; Rh30, read-out: IC50 in cell proliferation assay, cell line Rh30
  IC50: 1.08 µM
134 cancer cell lines; read-out: IC50 in cell proliferation assay, 11-18 cell line (EGFR p.L858R)
  IC50: > 31.6 µM
134 cancer cell lines; read-out: IC50 in cell proliferation assay, Hs 852.T cell line
  IC50: 3.37 µM
134 cancer cell lines; read-out: IC50 in cell proliferation assay, JAR cell line
  IC50: 0.419 µM
134 cancer cell lines; read-out: IC50 in cell proliferation assay, cell line 5637
  IC50: 0.586 µM
134 cancer cell lines; read-out: IC50 in cell proliferation assay, cell line A-388
  IC50: 2 µM
134 cancer cell lines; read-out: IC50 in cell proliferation assay, cell line DB
  IC50: 1.21 µM
134 cancer cell lines; read-out: IC50 in cell proliferation assay, cell line DEL (NPM1-ALK)
  IC50: 6.42 µM
134 cancer cell lines; read-out: IC50 in cell proliferation assay, cell line ES-2 (BRAF p.V600E)
  IC50: 0.1 µM
134 cancer cell lines; read-out: IC50 in cell proliferation assay, cell line PA-1
  IC50: 0.841 µM
134 cancer cell lines; read-out: IC50 in cell proliferation assay, cell line PC-3
  IC50: 1.37 µM
134 cancer cell lines; read-out: IC50 in cell proliferation assay, cell line RD
  IC50: 1.63 µM
134 cancer cell lines; read-out: IC50 in cell proliferation assay, cell line RKO (BRAF p.V600E)
  IC50: 0.244 µM
134 cancer cell lines; read-out: IC50 in cell proliferation assay, cell line RL
  IC50: 29.2 µM
134 cancer cell lines; read-out: IC50 in cell proliferation assay, cell line RT-4 (FGFR3-TACC3)
  IC50: 3.77 µM
134 cancer cell lines; read-out: IC50 in cell proliferation assay, cell line SR (NPM1-ALK)
  IC50: 0.921 µM
134 cancer cell lines; read-out: IC50 in cell proliferation assay, cell line T24
  IC50: 1.05 µM
134 cancer cell lines; read-out: IC50 in cell proliferation assay, cell line TT (RET p.C634W)
  IC50: 5.09 µM
134 cancer cell lines; read-out: IC50 in cell proliferation assay, cell line VA-ES-BJ
  IC50: 1.13 µM
AP-1060 (ETV6-NTRK3)
  IC50: 2.52 µM
[1]
  inhibition at 1 µM: 2.49%

Reference: publication PMC9516332 (Frontiers in Oncology, 2022)
